Measured values from US20070003671A1, “Two-part calcium fortified compositions and methods of making the same” (priority 2005, published 2007).

How the values were obtained:
Assay type in all cases: physicochemical
[1] = Calcium salts, physical/chemical attributes in orange juice, 450 mg/100 mL calcium load; details: for Brix/Acid Ratio: unfortified juice 18.3
Excerpt: (§1) The flavor of orange juice, for example, can be characterized by a unique balance of sweetness resulting from the sugar content and tartness resulting from the acid content. A challenge of fortifying orange juice with nutritionally significant amounts of calcium is maintaining the sweet to tart balance. This balance can be expressed analytically as the Brix to acid ratio, as described above. The Brix component of the ratio is the measure of soluble solids in the composition often determined by a refractometer. The acid component can be determined by titration with a base such as sodium hydroxide. The Brix to acid ratio is an analytical representation or measure of the sweet to tart taste balance.
A variety of calcium salts, i.e., calcium components, were evaluated to determine their effects on the Brix-acid ratio. In this evaluation, orange juices fortified with different calcium salts were prepared at 450 mg/100 mL of calcium load.

[2] = Calcium salts, physical/chemical attributes in orange juice, 350 mg/100 mL calcium load; details: for Brix/Acid Ratio: unfortified juice 18.3
Excerpt: as §1
A variety of calcium salts, i.e., calcium components, were again evaluated to determine their effects on the Brix-acid ratio but this time at 350 mg/100 mL calcium load.

[3] = pH of a 20% slurry in water
Excerpt: Titratable acidity and pH can be used as measures of sour perception in, e.g., beverage applications. It is well known that acidity provides a flavor lift or increased perception of flavor in a beverage.

## O=C([O-])CC(O)C(=O)[O-].[Ca+2] (stereo not drawn) [calcium malate]
[1]
  Brix (48 Hours): 12.80
  Calcium - Juice (48 Hours): 213 mg/100 mL
  Titratable Acidity (%) (48 Hours): 0.641%
  pH (48 Hours): 4.17
  Brix/Acid Ratio: 20.0
[2]
  Brix (48 hrs): 12.54
  Calcium in Juice (48 hrs): 166 mg/100 mL
  Titratable Acidity (%) (48 hrs): 0.635%
  pH (48 hrs): 4.15
  Brix/Acid Ratio: 19.7

## calcium ascorbate dihydrate
[1]
  Brix (48 Hours): 13.99
  Calcium - Juice (48 Hours): 195 mg/100 mL
  Titratable Acidity (%) (48 Hours): 0.648%
  pH (48 Hours): 4.23
  Brix/Acid Ratio: 21.6
[2]
  Brix (48 hrs): 13.41
  Calcium in Juice (48 hrs): 160 mg/100 mL
  Titratable Acidity (%) (48 hrs): 0.618%
  pH (48 hrs): 4.16
  Brix/Acid Ratio: 21.7

## O=P([O-])([O-])[O-].O=P([O-])([O-])[O-].[Ca+2].[Ca+2].[Ca+2] [tricalcium phosphate (fine), tricalcium phosphate]
[1]
  Brix (48 Hours): 12.30
  Calcium - Juice (48 Hours): 197 mg/100 mL
  Titratable Acidity (%) (48 Hours): 0.484%
  pH (48 Hours): 4.51
  Brix/Acid Ratio: 25.4
[2]
  Brix (48 hrs): 12.27
  Calcium in Juice (48 hrs): 157 mg/100 mL
  Titratable Acidity (%) (48 hrs): 0.490%
  pH (48 hrs): 4.49
  Brix/Acid Ratio: 25.0

## O=C([O-])[O-].[Ca+2] [calcium carbonate]
[1]
  Brix (48 Hours): 12.44
  Calcium - Juice (48 Hours): 200 mg/100 mL
  Titratable Acidity (%) (48 Hours): 0.099%
  pH (48 Hours): 5.88
  Brix/Acid Ratio: 125.7
[2]
  Brix (48 hrs): 12.35
  Calcium in Juice (48 hrs): 158 mg/100 mL
  Titratable Acidity (%) (48 hrs): 0.188%
  pH (48 hrs): 5.15
  Brix/Acid Ratio: 65.7

## O=C([O-])CC(O)(CC(=O)[O-])C(=O)[O-].O=C([O-])CC(O)(CC(=O)[O-])C(=O)[O-].[Ca+2].[Ca+2].[Ca+2] [tri-calcium citrate]
[1]
  Brix (48 Hours): 12.08
  Calcium - Juice (48 Hours): 177 mg/100 mL
  Titratable Acidity (%) (48 Hours): 0.630%
  pH (48 Hours): 4.07
  Brix/Acid Ratio: 19.2
[2]
  Brix (48 hrs): 12.37
  Calcium in Juice (48 hrs): 140 mg/100 mL
  Titratable Acidity (%) (48 hrs): 0.640%
  pH (48 hrs): 4.06
  Brix/Acid Ratio: 19.3

## O=P([O-])([O-])O.[Ca+2] [dicalcium phosphate anhydrous]
[1]
  Brix (48 Hours): 12.04
  Calcium - Juice (48 Hours): 203 mg/100 mL
  Titratable Acidity (%) (48 Hours): 0.674%
  pH (48 Hours): 4.04
  Brix/Acid Ratio: 17.8
[2]
  Brix (48 hrs): 11.97
  Calcium in Juice (48 hrs): 156 mg/100 mL
  Titratable Acidity (%) (48 hrs): 0.677%
  pH (48 hrs): 4.04
  Brix/Acid Ratio: 17.6
[3]
  pH of slurry: approximately 5.0

## N[C@@H](CCC(=O)[O-])C(=O)[O-].O.O.O.O.[Ca+2] [calcium L-glutamate tetrahydrate]
[1]
  Brix (48 Hours): 13.81
  Calcium - Juice (48 Hours): 207 mg/100 mL
  Titratable Acidity (%) (48 Hours): 0.627%
  pH (48 Hours): 4.47
  Brix/Acid Ratio: 22.0
[2]
  Brix (48 hrs): 13.41
  Calcium in Juice (48 hrs): 161 mg/100 mL
  Titratable Acidity (%) (48 hrs): 0.621%
  pH (48 hrs): 4.42
  Brix/Acid Ratio: 21.6

## calcium aspartate
[1]
  Brix (48 Hours): 13.42
  Calcium - Juice (48 Hours): 187 mg/100 mL
  Titratable Acidity (%) (48 Hours): 0.610%
  pH (48 Hours): 4.28
  Brix/Acid Ratio: 22.0
[2]
  Brix (48 hrs): 13.11
  Calcium in Juice (48 hrs): 159 mg/100 mL
  Titratable Acidity (%) (48 hrs): 0.617%
  pH (48 hrs): 4.24
  Brix/Acid Ratio: 21.2

## O=P([O-])([O-])[O-].O=P([O-])([O-])[O-].[Ca+2].[Ca+2].[Ca+2] [tricalcium phosphate]
[1]
  Brix (48 Hours): 12.40
  Calcium - Juice (48 Hours): 182 mg/100 mL
  Titratable Acidity (%) (48 Hours): 0.561%
  pH (48 Hours): 4.37
  Brix/Acid Ratio: 22.1
[2]
  Brix (48 hrs): 12.39
  Calcium in Juice (48 hrs): 147 mg/100 mL
  Titratable Acidity (%) (48 hrs): 0.530%
  pH (48 hrs): 4.34
  Brix/Acid Ratio: 23.4

## O.O.O=P([O-])([O-])O.[Ca+2] [dicalcium phosphate dihydrate]
[1]
  Brix (48 Hours): 12.26
  Calcium - Juice (48 Hours): 181 mg/100 mL
  Titratable Acidity (%) (48 Hours): 0.682%
  pH (48 Hours): 4.21
  Brix/Acid Ratio: 18.0
[2]
  Brix (48 hrs): 12.33
  Calcium in Juice (48 hrs): 141 mg/100 mL
  Titratable Acidity (%) (48 hrs): 0.667%
  pH (48 hrs): 4.17
  Brix/Acid Ratio: 18.5
[3]
  pH of slurry: 7.4

## O.O=P([O-])(O)O.O=P([O-])(O)O.[Ca+2] [monocalcium phosphate monohydrate]
[1]
  Brix (48 Hours): 12.92
  Calcium - Juice (48 Hours): 207 mg/100 mL
  Titratable Acidity (%) (48 Hours): 1.238%
  pH (48 Hours): 3.69
  Brix/Acid Ratio: 10.4
[2]
  Brix (48 hrs): 12.53
  Calcium in Juice (48 hrs): 164 mg/100 mL
  Titratable Acidity (%) (48 hrs): 1.083%
  pH (48 hrs): 3.76
  Brix/Acid Ratio: 11.6

## O.O.O.O=C([O-])/C=C/C(=O)[O-].[Ca+2] [calcium fumarate trihydrate]
[1]
  Brix (48 Hours): 12.96
  Calcium - Juice (48 Hours): 202 mg/100 mL
  Titratable Acidity (%) (48 Hours): 0.659%
  pH (48 Hours): 4.01
  Brix/Acid Ratio: 19.7
[2]
  Brix (48 hrs): 13.56
  Calcium in Juice (48 hrs): 158 mg/100 mL
  Titratable Acidity (%) (48 hrs): 0.643%
  pH (48 hrs): 3.99
  Brix/Acid Ratio: 21.1

## CC(O)C(=O)[O-].CC(O)C(=O)[O-].O.O.O.O.O.[Ca+2] (stereo not drawn) [calcium lactate pentahydrate]
[1]
  Brix (48 Hours): 13.01
  Calcium - Juice (48 Hours): 204 mg/100 mL
  Titratable Acidity (%) (48 Hours): 0.657%
  pH (48 Hours): 4.03
  Brix/Acid Ratio: 19.8
[2]
  Brix (48 hrs): 12.80
  Calcium in Juice (48 hrs): 157 mg/100 mL
  Titratable Acidity (%) (48 hrs): 0.670%
  pH (48 hrs): 4.01
  Brix/Acid Ratio: 19.1

## O.O=P([O-])([O-])OCC(O)CO.[Ca+2] (stereo not drawn) [calcium glycerophosphate monohydrate]
[1]
  Brix (48 Hours): 12.73
  Calcium - Juice (48 Hours): 187 mg/100 mL
  Titratable Acidity (%) (48 Hours): 0.598%
  pH (48 Hours): 4.50
  Brix/Acid Ratio: 21.3
[2]
  Brix (48 hrs): 12.54
  Calcium in Juice (48 hrs): 145 mg/100 mL
  Titratable Acidity (%) (48 hrs): 0.602%
  pH (48 hrs): 4.42
  Brix/Acid Ratio: 20.8

## O.O.O=C([O-])[C@H](O)[C@@H](O)C(=O)[O-].[Ca+2] [calcium L-tartrate dihydrate]
[1]
  Brix (48 Hours): 12.02
  Calcium - Juice (48 Hours): 140 mg/100 mL
  Titratable Acidity (%) (48 Hours): 0.545%
  pH (48 Hours): 4.23
  Brix/Acid Ratio: 22.1
[2]
  Brix (48 hrs): 11.99
  Calcium in Juice (48 hrs): 113 mg/100 mL
  Titratable Acidity (%) (48 hrs): 0.574%
  pH (48 hrs): 4.17
  Brix/Acid Ratio: 20.9

## O.O=C([O-])CCC(=O)[O-].[Ca+2] [calcium succinate monohydrate]
[1]
  Brix (48 Hours): 12.85
  Calcium - Juice (48 Hours): 206 mg/100 mL
  Titratable Acidity (%) (48 Hours): 0.607%
  pH (48 Hours): 4.66
  Brix/Acid Ratio: 21.2
[2]
  Brix (48 hrs): 12.64
  Calcium in Juice (48 hrs): 161 mg/100 mL
  Titratable Acidity (%) (48 hrs): 0.606%
  pH (48 hrs): 4.56
  Brix/Acid Ratio: 20.9

## O=C[O-].O=C[O-].[Ca+2] [calcium formate]
[1]
  Brix (48 Hours): 12.59
  Calcium - Juice (48 Hours): 206 mg/100 mL
  Titratable Acidity (%) (48 Hours): 0.620%
  pH (48 Hours): 4.20
  Brix/Acid Ratio: 20.3
[2]
  Brix (48 hrs): 12.45
  Calcium in Juice (48 hrs): 160 mg/100 mL
  Titratable Acidity (%) (48 hrs): 0.620%
  pH (48 hrs): 4.18
  Brix/Acid Ratio: 20.1

## calcium gluconate monohydrate
[1]
  Brix (48 Hours): 13.91
  Calcium - Juice (48 Hours): 198 mg/100 mL
  Titratable Acidity (%) (48 Hours): 0.653%
  pH (48 Hours): 4.00
  Brix/Acid Ratio: 21.3
[2]
  Brix (48 hrs): 13.56
  Calcium in Juice (48 hrs): 154 mg/100 mL
  Titratable Acidity (%) (48 hrs): 0.640%
  pH (48 hrs): 3.99
  Brix/Acid Ratio: 21.2

## O.O.[Ca+2].[Cl-].[Cl-] [calcium chloride dihydrate]
[1]
  Brix (48 Hours): 12.70
  Calcium - Juice (48 Hours): 206 mg/100 mL
  Titratable Acidity (%) (48 Hours): 0.620%
  pH (48 Hours): 3.84
  Brix/Acid Ratio: 20.5
[2]
  Brix (48 hrs): 12.54
  Calcium in Juice (48 hrs): 163 mg/100 mL
  Titratable Acidity (%) (48 hrs): 0.618%
  pH (48 hrs): 3.88
  Brix/Acid Ratio: 20.3
